Results: US20160145247A1, “Aminomethyl-Biaryl Derivatives Complement Factor D inhibitors and uses thereof” (NOVARTIS AG, priority 2013, published 2016)

These compounds were tested against T1, factor D (Homo sapiens, UniProt P00746) (assay: factor D inhibition assay of Biological Example 2).
T1 construct: made in house; host or cells: E. coli
Type: biochemical

T1 sequence (P00746 26-253): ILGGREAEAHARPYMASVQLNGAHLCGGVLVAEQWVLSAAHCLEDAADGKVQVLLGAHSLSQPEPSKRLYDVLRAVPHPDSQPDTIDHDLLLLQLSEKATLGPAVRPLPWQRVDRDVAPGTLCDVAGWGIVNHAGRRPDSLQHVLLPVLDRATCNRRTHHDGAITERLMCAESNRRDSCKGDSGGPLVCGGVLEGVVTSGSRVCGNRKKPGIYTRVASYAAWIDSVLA

Row | IC50 [nM] | SMILES
1 | 30 | CC(=O)Nc1cc(C(=O)Nc2ccccc2CC(=O)O)cc(-c2cc(F)cc(CN)c2)c1 [Example 67-B, 2-(2-(5-Acetamido-3′-(aminomethyl)-5′-fluoro-[1,1′-biphenyl]-3-ylcarboxamido)phenyl)acetic acid]
2 | 2930 | CCOC(=O)Cc1ccccc1NC(=O)c1cc(NC(C)=O)cc(-c2cc(F)cc(CN)c2)c1 [Example 67-C, Ethyl 2-(2-(5-acetamido-3′-(aminomethyl)-5′-fluoro-[1,1′-biphenyl]-3-ylcarboxamido)phenyl)acetate]
3 | 20 | NCc1cc(F)cc(-c2cc(OCc3ncccn3)cc(C(=O)Nc3ccccc3CC(=O)O)c2)c1 [Example 68, 2-(2-(3′-(Aminomethyl)-5′-fluoro-5-(pyrimidin-2-ylmethoxy)-[1,1′-biphenyl]-3-ylcarboxamido)phenyl)acetic acid]
4 | 26 | Cn1ccc(COc2cc(C(=O)Nc3ccccc3CC(=O)O)cc(-c3cc(F)cc(CN)c3)c2)n1 [Example 69, 2-(2-(3′-(Aminomethyl)-5′-fluoro-5-((1-methyl-1H-pyrazol-3-yl)methoxy)-[1,1′-biphenyl]-3-ylcarboxamido)phenyl)acetic acid]
5 | 9 | CNC(=O)c1cc(COc2cc(C(=O)Nc3ccccc3CC(=O)O)cc(-c3cc(F)cc(CN)c3)c2)ccn1 [Example 71, 2-(2-(3′-(Aminomethyl)-5′-fluoro-5-((2-(methylcarbamoyl)pyridin-4-yl)methoxy)-[1,1′-biphenyl]-3-ylcarboxamido)phenyl)acetic acid]
6 | 22 | COCCOc1cc(C(=O)Nc2ccccc2CC(=O)O)cc(-c2cc(F)cc(CN)c2)c1 [Example 73-C, 2-(2-(3′-(Aminomethyl)-5′-fluoro-5-(2-methoxyethoxy)-[1,1′-biphenyl]-3-ylcarboxamido)phenyl)acetic acid]
7 | 6 | NCc1cc(F)cc(-c2cc(OC[C@H]3CCCO3)cc(C(=O)Nc3ccccc3CC(=O)O)c2)c1 [Example 76, (R)-2-(2-(3′-(Aminomethyl)-5′-fluoro-5-((tetrahydrofuran-2-yl)methoxy)-[1,1′-biphenyl]-3-ylcarboxamido)phenyl)acetic acid]
8 | 55 | NCc1cc(F)cc(-c2cc(C(=O)Nc3ccccc3CC(=O)O)cc(N3CCOCC3)c2)c1 [Example 77-B, 2-(2-(3′-(Aminomethyl)-5′-fluoro-5-morpholino-[1,1′-biphenyl]-3-ylcarboxamido)phenyl)acetic acid]
9 | 22 | Cn1nc(C2CC2)cc1Nc1cc(C(=O)Nc2ccccc2CC(=O)O)cc(-c2cc(F)cc(CN)c2)c1 [Example 78-B, 2-(2-(3′-(Aminomethyl)-5-((3-cyclopropyl-1-methyl-1H-pyrazol-5-yl)amino)-5′-fluoro-[1,1′-biphenyl]-3-ylcarboxamido)phenyl)acetic acid]
10 | 5 | NCc1cc(F)cc(-c2cc(NCC3CCOC3)cc(C(=O)Nc3ccccc3CC(=O)O)c2)c1 (stereo not drawn) [Example 79-A]
11 | 9 | NCc1cc(F)cc(-c2cc(NC3CCOC3)cc(C(=O)Nc3ccccc3CC(=O)O)c2)c1 (stereo not drawn) [Example 79-B]
12 | 22 | Cn1ccc(Nc2cc(C(=O)Nc3ccccc3CC(=O)O)cc(-c3cc(F)cc(CN)c3)c2)n1 [Example 79-C]
13 | 14 | NCc1cc(F)cc(-c2cc(NC3CCOCC3)cc(C(=O)Nc3ccccc3CC(=O)O)c2)c1 [Example 79-D]
14 | 12 | NCc1cc(F)cc(-c2cc(NCC3CCOCC3)cc(C(=O)Nc3ccccc3CC(=O)O)c2)c1 [Example 79-E]
15 | 6 | NCc1cc(F)cc(-c2cc(NC[C@@H]3CCCO3)cc(C(=O)Nc3ccccc3CC(=O)O)c2)c1 [Example 79-F]
16 | 22 | NCc1cc(F)cc(-c2cc(Nc3ccn[nH]3)cc(C(=O)Nc3ccccc3CC(=O)O)c2)c1 [Example 79-G]
17 | 17 | Cc1cc(Nc2cc(C(=O)Nc3ccccc3CC(=O)O)cc(-c3cc(F)cc(CN)c3)c2)[nH]n1 [Example 79-H]
18 | 19 | Cc1cc(Nc2cc(C(=O)Nc3ccccc3CC(=O)O)cc(-c3cc(F)cc(CN)c3)c2)n(C)n1 [Example 79-I]
19 | 709 | CCOC(=O)Cc1ccccc1NC(=O)c1cc(NC[C@H]2CCCO2)cc(-c2cc(F)cc(CN)c2)c1 [Example 85, (R)-Ethyl 2-(2-(3′-(aminomethyl)-5′-fluoro-5-(((tetrahydrofuran-2-yl)methyl)amino)-[1,1′-biphenyl]-3-ylcarboxamido)phenyl)acetate]
20 | 6720 | COc1c(C(=O)Nc2ccccc2CC(=O)O)cccc1-c1cc(F)cc(CN)c1 [Example 93-B, 2-(2-(3′-(Aminomethyl)-5′-fluoro-2-methoxy-[1,1′-biphenyl]-3-ylcarboxamido)phenyl)acetic acid]
21 | 2240 | NCc1cc(F)cc(-c2cc(C(=O)O)cc(C(=O)Nc3ccccc3CC(=O)O)c2)c1 [Example 95-B, 3′-(Aminomethyl)-5-((2-(carboxymethyl)phenyl)carbamoyl)-5′-fluoro-[1,1′-biphenyl]-3-carboxylic acid]
22 | 21 | CCC(=O)Nc1cc(C(=O)Nc2ccccc2CC(=O)O)cc(-c2cc(F)cc(CN)c2)c1 [Example 96-D, 2-(2-(3′-(Aminomethyl)-5′-fluoro-5-propionamido-[1,1′-biphenyl]-3-ylcarboxamido)phenyl)acetic acid]
23 | 45 | CC(C)C(=O)Nc1cc(C(=O)Nc2ccccc2CC(=O)O)cc(-c2cc(F)cc(CN)c2)c1 [Example 97, 2-(2-(3′-(Aminomethyl)-5′-fluoro-5-isobutyramido-[1,1′-biphenyl]-3-ylcarboxamido)phenyl)acetic acid]

The next lines start with the compound.

Row | SMILES | IC50 [nM]
24 | Cn1ccc(COc2cc(C(=O)Nc3ccccc3CC(=O)O)cc(-c3cccc(CN)c3)c2)n1 [Example 66, 2-(2-(3′-(Aminomethyl)-5-((1-methyl-1H-pyrazol-3-yl)methoxy)-[1,1′-biphenyl]-3-ylcarboxamido)phenyl)acetic acid] | 33
25 | CNC(=O)c1cc(COc2cc(C(=O)Nc3ccccc3CC(=O)O)cc(-c3cccc(CN)c3)c2)ccn1 [Example 70, 2-(2-(3′-(Aminomethyl)-5-((2-(methylcarbamoyl)pyridin-4-yl)methoxy)-[1,1′-biphenyl]-3-ylcarboxamido)phenyl)acetic acid] | 11
26 | COCCOc1cc(C(=O)Nc2ccccc2CC(=O)O)cc(-c2cccc(CN)c2)c1 [Example 72-B, 2-(2-(3′-(Aminomethyl)-5-(2-methoxyethoxy)-[1,1′-biphenyl]-3-ylcarboxamido)phenyl)acetic acid] | 58
27 | NCc1cccc(-c2cc(OC[C@H]3CCCO3)cc(C(=O)Nc3ccccc3CC(=O)O)c2)c1 [Example 74-D, (R)-2-(2-(3′-(Aminomethyl)-5-((tetrahydrofuran-2-yl)methoxy)-[1,1′-biphenyl]-3-ylcarboxamido)phenyl)acetic acid] | 9
28 | N[C@H](CO)c1cccc(-c2cccc(COc3c(F)cccc3CC(=O)O)c2)c1 [Example 75-B, (S)-2-(2-((3′-(1-Amino-2-hydroxyethyl)-[1,1′-biphenyl]-3-yl)methoxy)-3-fluorophenyl)acetic acid] | 26
29 | C[C@@H](N)c1cccc(-c2cc(OC[C@@H]3CCCO3)cc(C(=O)Nc3ccccc3CC(=O)O)c2)c1 [Example 80-C, 2-(2-(3′-((R)-1-Aminoethyl)-5-(((S)-tetrahydrofuran-2-yl)methoxy)-[1,1′-biphenyl]-3-ylcarboxamido)phenyl)acetic acid] | 143
30 | N[C@H](CO)c1cccc(-c2cc(OC[C@@H]3CCCO3)cc(C(=O)Nc3ccccc3CC(=O)O)c2)c1 [Example 81, 2-(2-(3′-((S)-1-Amino-2-hydroxyethyl)-5-(((S)-tetrahydrofuran-2-yl)methoxy)-[1,1′-biphenyl]-3-ylcarboxamido)phenyl)acetic acid] | 20
31 | N[C@H](CO)c1cccc(-c2cc(C(=O)Nc3ccccc3CC(=O)O)cc(-c3cccc([C@H](N)CO)c3)c2)c1 [Example 82-B, 2-(2-(3,3″-bis((S)-1-amino-2-hydroxyethyl)-[1,1′:3′,1″-terphenyl]-5′-ylcarboxamido)phenyl)acetic acid] | 19
32 | COCCNc1cc(C(=O)Nc2ccccc2CC(=O)O)cc(-c2cccc([C@H](N)CO)c2)c1 [Example 83-D, (S)-2-(2-(3′-(1-amino-2-hydroxyethyl)-5-((2-methoxyethyl)amino)-[1,1′-biphenyl]-3-ylcarboxamido)phenyl)acetic acid] | 22
33 | COCCNc1cc(COc2ccccc2CC(=O)O)cc(-c2cccc([C@H](N)CO)c2)c1 [Example 84, (S)-2-(2-((3′-(1-Amino-2-hydroxyethyl)-5-((2-methoxyethyl)amino)-[1,1′-biphenyl]-3-yl)methoxy)phenyl)acetic acid] | 5
34 | N[C@H](CCO)c1cccc(-c2cccc(C(=O)Nc3ccccc3CC(=O)O)c2)c1 [Example 88, (R)-2-(2-(3′-(1-Amino-3-hydroxypropyl)-[1,1′-biphenyl]-3-ylcarboxamido)phenyl)acetic acid] | 958
35 | N[C@@H](CCO)c1cccc(-c2cccc(C(=O)Nc3ccccc3CC(=O)O)c2)c1 [Example 89, (S)-2-(2-(3′-(1-Amino-3-hydroxypropyl)-[1,1′-biphenyl]-3-ylcarboxamido)phenyl)acetic acid] | 5250
36 | C[C@@H](N)c1cccc(-c2cccc(C(=O)Nc3ccccc3CC(=O)O)c2)c1 [Example 90, (R)-2-(2-(3′-(1-aminoethyl)-[1,1′-biphenyl]-3-ylcarboxamido)phenyl)acetic acid] | 823
37 | COc1c(C(=O)Nc2ccccc2CC(=O)O)cccc1-c1cccc(CN)c1 [Example 91, 2-(2-(3′-(Aminomethyl)-2-methoxy-[1,1′-biphenyl]-3-ylcarboxamido)phenyl)acetic acid] | 22300
38 | NC1(c2cccc(-c3cccc(C(=O)Nc4ccccc4CC(=O)O)c3)c2)CC1 [Example 92, 2-(2-(3′-(1-Aminocyclopropyl)-[1,1′-biphenyl]-3-ylcarboxamido)phenyl)acetic acid] | 8470
39 | N[C@H](CCO)c1cccc(-c2cc(COc3ccccc3CC(=O)O)cc(NCC3CC3)c2)c1 [Example 94-C, (R)-2-(2-((3′-(1-amino-3-hydroxypropyl)-5-((cyclopropylmethyl)amino)-[1,1′-biphenyl]-3-yl)methoxy)phenyl)acetic acid] | 27
